One data set concerns MDA-MB-231. Kind of data set: Growth inhibition of human MDA-MB-231 cells by sulforhodamine B assay. The conditions noted are these: for CC50: read-out: LC50 (the source's name). Type of data set: functional.
The test system of the next data set is A549. In words: Growth inhibition of human A549 cells by sulforhodamine B assay. Type of data set: functional. To be noted: for CC50: read-out: LC50 (the source's name). (In general: Sulforhodamine B stains cellular protein and so reports cell mass.)
Another data set concerns Plasmodium falciparum. In words: Antimalarial activity against chloroquine-resistant Plasmodium falciparum FcB1/Columbia infected in human erythrocytes assessed as inhibition of [G-3H]hypoxanthine incorporation after 24 hrs by scintillation counting. Type of data set: functional, organism-based.
The subject of the next data set is HT-29. In words: Growth inhibition of human HT-29 cells by sulforhodamine B assay. Type of data set: functional.
The subject of a further data set is HeLa. Kind of data set: Cytotoxicity against human HeLa cells by sulforhodamine B assay. The conditions noted are these: read-out: TC50 (the source's name). Type of data set: functional.
Data set [1] can be described thus: Selective index, ratio of TC50 for human HeLa cells to IC50 for Plasmodium falciparum FcB1/Columbia. Type of data set: functional.
For the next data set, the system named is Vero. In words: Cytotoxicity against african green monkey Vero cells. Type of data set: cell-based. The conditions noted are these: chlorocebus sabaeus.

One may read the GI50 as the concentration giving 50% growth inhibition. One may read the TGI as the concentration at which net growth stops. The IC50 is the concentration needed to halve the response being measured. Take `CCCCCCC[C@@H]1C[C@@H]2CCc3c(C(=O)O)c(C)nc([n+]32)N1` [CLATHRIADIC ACID]: in the data set on MDA-MB-231, it took 13.5 µM to inhibit growth by half (GI50), the TGI is greater than 30 µM and the CC50 is greater than 30 µM. In the data set on A549, the GI50 is greater than 30 µM, the TGI is greater than 30 µM and the CC50 was greater than 30 µM. Further, in the data set on Plasmodium falciparum, the IC50 came to 2.3 µM. In the data set with HT-29, this compound returned a GI50 greater than 30 µM, an LC50 (concentration killing 50% of cells) greater than 30 µM and a TGI greater than 30 µM.

On to `CCCCCCCCC[C@@H]1C[C@@H]2CCc3c(C(=O)OCCCCNC(=N)N)c(CCCCC)nc([n+]32)N1` [DIHOMODEHYDROBATZELLADINE C], for which, in the data set on MDA-MB-231, it took 6.1 µM to inhibit growth by half (GI50), net growth stopped (TGI) at 9.8 µM and the CC50 amounted to 15.6 µM. In addition, in the data set with A549, the GI50 worked out at 4.7 µM, the TGI is 8.2 µM and the CC50 is 13.1 µM. In addition, the IC50 in the data set on Plasmodium falciparum was found to be 4.5 µM. In the data set on HT-29, this compound came in with a GI50 of 3.1 µM, an LC50 (concentration killing 50% of cells) of 8.2 µM and a TGI of 5.1 µM.

As for `CCCCCCCCC[C@@H]1C[C@@H]2CC[C@H]3[C@@H](C(=O)OCCCCCCCCC[C@H]4NC(=N)N5CCCC5=C4C(=O)OCCCCNC(=N)N)[C@@H](C)N=C(N1)N23` [BATZELLADINE A], in the data set with HeLa, the CC50 was 2.9 µM. In addition, the “Selectivity Index” value in data set [1] was 9.7. In the data set on Plasmodium falciparum, the 50% inhibitory concentration (IC50) is 0.3 µM.

`CCCCCCC[C@@H]1C[C@@H]2CC[C@H]3[C@@H](C(=O)OCCCCCCCCC[C@H]4NC(=N)N5CCCC5=C4C(=O)OCCCCNC(=N)N)[C@@H](C)N=C(N1)N23` [DINORBATZELLADINE A]: in the data set on MDA-MB-231, the GI50 worked out at 3 µM, the TGI amounted to 3.8 µM and the CC50 was 4.6 µM. Moreover, in the data set on A549, the GI50 is 4.9 µM, the TGI turned out to be 5.1 µM and the CC50 was 5.4 µM. Also, the IC50 in the data set on Plasmodium falciparum was 0.9 µM. In the data set on HT-29, this compound yielded a GI50 of 1.9 µM, an LC50 (concentration killing 50% of cells) of 7.6 µM and a TGI of 4.2 µM.

In the case of `CCCCCCCC[C@@H]1C[C@@H]2CC[C@H]3[C@@H](C(=O)OC(C)CCCCCCC[C@@H]4C[C@@H]5CC[C@@H]6C[C@H](C)NC(=N4)N65)[C@@H](C)N=C(N1)N23` (some centres undefined) [NORBATZELLADINE L], in the data set on MDA-MB-231, the GI50 was found to be 0.7 µM, the TGI was 1.9 µM and the CC50 was determined as 4.8 µM. Besides, in the data set on A549, the GI50 stood at 1.1 µM, the TGI is 2.1 µM and the CC50 was found to be 4.2 µM. Moreover, the IC50 with Plasmodium falciparum was found to be 0.4 µM. Moreover, in the data set with HT-29, the concentration for 50% growth inhibition (GI50) stood at 1.2 µM, the LC50 (concentration killing 50% of cells) stood at 4 µM and net growth stopped (TGI) at 2.2 µM.

As for `CCCCCCC[C@@H]1C[C@@H]2CCc3c(C(=O)OCCCCCCC[C@H]4NC(=N)N5CCCC5=C4C(=O)OCCCCNC(=N)N)c(C)nc([n+]32)N1` [DINORDEHYDROBATZELLADINE B], in the data set on A549, the GI50 was determined as 7.9 µM, the concentration for total growth inhibition (TGI) is greater than 14 µM and the CC50 was greater than 14 µM. Besides, in the data set on Plasmodium falciparum, the concentration for half-maximal inhibition (IC50) amounted to 0.8 µM. In the data set on HT-29, this compound came in with a GI50 of 6.2 µM, an LC50 (concentration killing 50% of cells) greater than 14 µM and a TGI greater than 14 µM.

For `CC[C@H]1CCCC[C@@]2(C[C@@H]3CC[C@@H]4[C@H](C(=O)OCCCCCCCCCCCCCCCC(=O)N(CCCN)CCCCN)[C@]5(CCC[C@@H](C)O5)NC(=[N+]34)N2)O1.[Cl-]` [PTILOMYCALIN A], the CC50 with HeLa turned out to be 0.1 µM. In data set [1], the “Selectivity Index” value was determined as 1.4. The Activity entry in the data set with Vero was “Non-toxic”. For the same compound, in the data set with Plasmodium falciparum, the IC50 turned out to be 0.1 µM.

As for `CCCCCCCC[C@@H]1C[C@@H]2CC[C@H]3[C@@H](C(=O)OCCCCCCCCC[C@H]4NC(=N)N5CCCC5=C4C(=O)OCCCCNC(=N)N)[C@@H](C)N=C(N1)N23` [NORBATZELLADINE A], in the data set with MDA-MB-231, it took 3.8 µM to inhibit growth by half (GI50), net growth stopped (TGI) at 6.4 µM and the CC50 amounted to 11.4 µM. Also, in the data set with A549, the concentration for 50% growth inhibition (GI50) was determined as 2.1 µM, total growth inhibition (TGI) required 4.6 µM and the CC50 amounted to 8.6 µM. Besides, the CC50 in the data set with HeLa was found to be 4.7 µM. For the same compound, the “Selectivity Index” value in data set [1] is recorded as 23.5. In the data set on Plasmodium falciparum, the IC50 came to 0.2 µM. In the data set on HT-29, this compound registered a 50% growth inhibitory concentration (GI50) of 1.6 µM, an LC50 (concentration killing 50% of cells) of 5.7 µM and a TGI of 3.2 µM.

On to `CCCCCCCCC[C@@H]1C[C@@H]2CC[C@H]3[C@@H](C(=O)OC(C)CCCCCCC[C@@H]4C[C@@H]5CC[C@@H]6C[C@H](C)NC(=N4)N65)[C@@H](C)N=C(N1)N23` (some centres undefined) [BATZELLADINE L], for which the CC50 in the data set on HeLa was less than 0.1 µM. The “Selectivity Index” value in data set [1] was less than 1. In addition, in the data set on Plasmodium falciparum, the IC50 was found to be 0.3 µM.
